Measured values: ChEMBL document CHEMBL4602696, “LMP2 Inhibitors as a Potential Treatment for Alzheimer's Disease” (J Med Chem, 2020)
Active and inactive are the calls of the source. No cut-off for these calls is given here.

How the values were obtained:
[1] = Inhibition of LMP7/Beta 5 subunit chymotrypsin-like activity in human RPM18226 cell lysates using Suc-LLVY-AMC as substrate after 1 hr by fluorescence based microplate reader analysis; format: cell-free; conditions: rpmi-8226
[2] = target: T1, Proteasome subunit beta type-9 (Homo sapiens, UniProt P28065); assay: Inhibition of LMP2 in human 20S immunoproteasome using Ac-PAL-AMC as substrate after 1 hr by fluorescence based microplate reader analysis
T1 sequence (P28065 whole entry): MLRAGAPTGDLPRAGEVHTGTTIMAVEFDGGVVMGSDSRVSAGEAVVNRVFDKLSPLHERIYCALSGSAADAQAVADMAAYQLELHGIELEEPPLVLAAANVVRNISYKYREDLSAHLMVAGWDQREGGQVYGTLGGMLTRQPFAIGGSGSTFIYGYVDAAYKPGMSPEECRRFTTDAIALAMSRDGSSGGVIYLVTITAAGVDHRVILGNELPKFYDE

[3] = target: T2, Proteasome subunit beta type-9 (Homo sapiens) (UniProt P28065); assay: Inhibition of LMP2 subunit in human DLD1 cells over expressing ABCB1 at 1 uM using Ac-PAL-AMC as substrate incubated for 4 hrs; format: cell-based; conditions: DLD-1
T2 sequence (whole entry): T1 sequence (P28065 whole entry)

[4] = target: T2, Proteasome subunit beta type-9 (Homo sapiens); assay: Inhibition of immunoproteasome LMP2 subunit in human DLD1 cells over expressing ABCB1 at 3 uM using Ac-PAL-AMC as substrate incubated for 4 hrs in presence of reversin-121; format: cell-based; conditions: DLD-1
[5] = target: T3, Proteasome subunit beta type-8 (Homo sapiens, UniProt P28062); assay: Inhibition of LMP7 in human 20S immunoproteasome using Ac-ANW-AMC as substrate after 1 hr by fluorescence based microplate reader analysis
T3 sequence (P28062 whole entry): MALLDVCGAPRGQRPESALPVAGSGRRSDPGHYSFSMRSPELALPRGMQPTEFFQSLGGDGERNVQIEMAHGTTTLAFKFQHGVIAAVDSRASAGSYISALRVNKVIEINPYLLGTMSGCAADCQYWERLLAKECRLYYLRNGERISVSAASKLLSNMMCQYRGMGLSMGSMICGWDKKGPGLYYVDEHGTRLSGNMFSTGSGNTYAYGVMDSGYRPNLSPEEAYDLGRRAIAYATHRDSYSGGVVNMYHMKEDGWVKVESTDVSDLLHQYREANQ

[6] = target: T4, Proteasome Macropain subunit MB1 (Homo sapiens, UniProt P28074); assay: Inhibition of Beta5 in human 20S […] usingAc-WLA-AMC as substrate after 1 hr by fluorescence based microplate reader analysis
T4 sequence (P28074 whole entry): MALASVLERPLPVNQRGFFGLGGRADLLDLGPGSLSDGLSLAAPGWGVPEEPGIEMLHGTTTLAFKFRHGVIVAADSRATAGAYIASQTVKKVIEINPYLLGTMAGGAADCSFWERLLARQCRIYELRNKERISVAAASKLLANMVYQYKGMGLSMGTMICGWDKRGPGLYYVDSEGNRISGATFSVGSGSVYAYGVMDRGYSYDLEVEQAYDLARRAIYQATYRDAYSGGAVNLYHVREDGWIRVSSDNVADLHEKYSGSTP

BV-2 [7] = assay: Antiinflammatory activity against mouse BV2 cells assessed as reduction in LPS-induced IL-1alpha release after 24 hrs by ELISA; format: functional, cell-based
[8] = target: T2, Proteasome subunit beta type-9 (Homo sapiens); assay: Inhibition of LMP2 in human ARPE-19 cells assessed as suppression of TNFalpha-stimulated EMT by measuring E-cadherin expression after 24 hrs by immunofluorescence analysis; format: cell-based
[9] = target: T2, Proteasome subunit beta type-9 (Homo sapiens); assay: Inhibition of LMP2 in human ARPE-19 cells assessed as suppression of TNFalpha-stimulated EMT by measuring vimentin expression after 24 hrs by immunofluorescence analysis; format: cell-based
Mus musculus [10] = assay: Antialzheimer activity in transgenic Tg2576 ICR mouse at 10 mg/kg, iv administered twice per week for 3 weeks by Morris water maze test; format: functional, organism-based
Mus musculus [11] = assay: Antialzheimer activity in transgenic Tg2576 ICR mouse assessed as reduction in IL-1alpha level in serum at 10 mg/kg, iv administered twice per week for 3 weeks by ELISA; format: functional, organism-based
Mus musculus [12] = assay: Antineuroinflammatory activity in APP transgenic Tg2576 mouse assessed as inhibition of retinal pigment epithelium degeneration at 10 mg/kg, iv administered twice per week for 3 weeks by immuno staining based confocal microscopic analysis relative to control; format: functional; parameters: scale not given: the % may be the effect or the level left
[13] = Toxicity in transgenic Tg2576 ICR mouse at 10 mg/kg, iv administered twice per week for 3 weeks; format: organism-based; conditions: in vivo, 504 h
BV-2 [14] = assay: Cytotoxicity against mouse BV2 cells up to 10 uM after 72 hrs by CellTiter 96 aqueous one solution reagent based assay; format: cell-based; conditions: bv-2, 72 h
RPMI-8226 = assay: Cytotoxicity against human RPM18226 cells up to 10 uM after 72 hrs by CellTiter 96 aqueous one solution reagent based assay; format: cell-based; conditions: rpmi-8226, 72 h
WI-38 = assay: Cytotoxicity against human WI38 cells up to 10 uM after 72 hrs by CellTiter 96 aqueous one solution reagent based assay; format: cell-based; conditions: wi-38, 72 h

IC50 [1]: > 10 µM
IC50 [2]: 0.07 to 0.0806 µM
inhibition [3]: Active
inhibition [4]: Active
IC50 [5]: > 10 µM
IC50 [6]: > 10 µM
inhibition [8]: Active
inhibition [9]: Active
SMILES: CC(C)C[C@H](NC(=O)[C@H](Cc1ccccc1)NC(=O)[C@@H]1CCCN1C(=O)CNC(=O)c1cnccn1)C(=O)[C@@]1(C)CO1
Activity (BV-2 [7]): Active
Activity (Mus musculus [10]): Active
Activity (Mus musculus [11]): Active
Activity (Mus musculus [12]): 100%
Activity [13]: Non-Toxic
Activity (BV-2 [14]): Non-Toxic
Activity (RPMI-8226): Non-Toxic
Activity (WI-38): Non-Toxic
